The target of assay [1] is MAPK7 (Homo sapiens, UniProt Q13164). Briefly: MAPK7 Western blot protein degradation assay in U-87 MG cells. The assay is classed as cell-based. Also on record: U-87 MG human glioblastoma cells, which express MAPK7; endogenous in cells; host or cells: U-87 MG. Conditions: 48 hr. The procedure:
U-87 MG human glioblastoma cells were seeded in 6- or 12-well tissue culture plates, and after 1 hr, test compounds were added at various concentrations and incubated at 37° C./5% CO2 for 48 hr. Cells were then washed with cold PBS, aspirated and cold RIPA buffer containing a protease/phosphatase inhibitor cocktail was added to lyse cells. After centrifugation, the total protein concentrations of cell lysates were determined using the BCA protein assay. Samples were normalized for equivalent protein concentrations, 5×SDS-PAGE loading buffer added and denatured at 100° C. for 10 min. 20 μl of each sample/well was loaded on a SDS-PAGE gel and electrophoresed for 20 min at 80 V, then 120 V for 1.5 hr. Gels were then electroblotted to nitrocellulose membranes using a wet-transfer method at 250 mA for 2.5 hr. Membranes were incubated with blocking buffer for 1 hr and washed 3 times with TBST for 5 min. Membranes were then incubated with anti-MAPK7 (anti-ERK5; Cell Signaling Technology, #12950) and anti-3-Actin (Cell Signaling Technology, #3700) monoclonal antibodies diluted in blocking buffer at 4° C. overnight per the manufacturer's recommendations. After washing 3 times, blots were incubated with appropriately labeled secondary antibodies for 1 hr at room temperature and washed again. Fluorescence imaging and quantitation was performed using a LI-COR Odyssey. Results was analyzed using GraphPad Prism 7 software.
In general terms: Immunoblotting shows a protein as a band on a membrane.

Assay [2] deals with ERBB2. The assay can be described thus: ERBB2 (HER2) flow cytometry protein degradation assay in BT-474 cells. Format: cell-based, human. As to conditions: DC50, BT-474 cells, 24 hr. The procedure:
To analyze total ERBB2 expression by flow cytometry, cells were detached with trypsin, washed, counted and treated with 10 μl/10^6 cells PE-conjugated, anti-ERBB2 monoclonal antibody (R&D Systems, #FAB1129P) for 30 min at 25° C. in dark. Cells were then washed, resuspended in 200 μl 1% paraformaldehyde and analyzed by flow cytometry.
% Inhibition=100−(D−B)/(S−B)*100%. • S: Fluorescence intensity of cells with antibody • D: Fluorescence intensity of compound-treated cells with antibody • B: Fluorescence intensity of cells without antibody
(In flow cytometry, cells or beads pass a laser one at a time.)

In assay [3] the test system is U-87 MG human glioblastoma. Briefly: U87 MG CCK-8 proliferation assay. Format: cell-based. Conditions: Homo sapiens, U-87 MG, 72 h, U-87 MG cells, read-out: U87MG CCK-8. In outline: (§1)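 Lines were maintained according to ATCC guidance. Compounds were then applied as a 3-fold titration from 20 μM to 1.02 nM, and proliferation was measured by CCK-8 absorbance, normalised to DMSO controls minus a no-cell blank.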
A general note: Formazan colour is commonly taken as a measure of viable cells.

In assay [4] the test system is MV-4-11 human acute myeloid leukemia. The assay can be described thus: MV-4-11 CCK-8 proliferation assay. The assay is classed as cell-based. Conditions: Homo sapiens, MV4-11; MV-4-11 cells, 72 hr. The procedure, abridged: as §1
The target in assay [5] is T1, HSP90α protein (Homo sapiens, UniProt P07900).
T1 construct: purchased BPS Bioscience #50298
Briefly: HSP90α-binding FP (BODIPY) assay. Conditions: FP competition with BODIPY-labeled RNK04010. In outline: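 Fluorescence polarization measured competition with N-terminal human HSP90α, using either FITC-geldanamycin or BODIPY-labelled triazolone RNK04010 as tracer (5 nM final each). Compounds were tested in 2.5-fold dilutions from 20 μM to 5.2 nM, with incubation at 25 °C for 120 min (FITC) or 300 min (BODIPY).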

Here are results for 9 compounds from patent US20240124460A1, “METHODS AND COMPOSITIONS FOR TARGETED PROTEIN DEGRADATION” (Ranok Therapeutics (Hangzhou) Co. Ltd., priority 2020, published 2024).

The structures appear in SMILES notation.

As usually defined, the IC50 is the concentration needed to halve the response being measured. Read a high IC50 as lower potency.

MAPK7, sequence (Q13164 whole entry): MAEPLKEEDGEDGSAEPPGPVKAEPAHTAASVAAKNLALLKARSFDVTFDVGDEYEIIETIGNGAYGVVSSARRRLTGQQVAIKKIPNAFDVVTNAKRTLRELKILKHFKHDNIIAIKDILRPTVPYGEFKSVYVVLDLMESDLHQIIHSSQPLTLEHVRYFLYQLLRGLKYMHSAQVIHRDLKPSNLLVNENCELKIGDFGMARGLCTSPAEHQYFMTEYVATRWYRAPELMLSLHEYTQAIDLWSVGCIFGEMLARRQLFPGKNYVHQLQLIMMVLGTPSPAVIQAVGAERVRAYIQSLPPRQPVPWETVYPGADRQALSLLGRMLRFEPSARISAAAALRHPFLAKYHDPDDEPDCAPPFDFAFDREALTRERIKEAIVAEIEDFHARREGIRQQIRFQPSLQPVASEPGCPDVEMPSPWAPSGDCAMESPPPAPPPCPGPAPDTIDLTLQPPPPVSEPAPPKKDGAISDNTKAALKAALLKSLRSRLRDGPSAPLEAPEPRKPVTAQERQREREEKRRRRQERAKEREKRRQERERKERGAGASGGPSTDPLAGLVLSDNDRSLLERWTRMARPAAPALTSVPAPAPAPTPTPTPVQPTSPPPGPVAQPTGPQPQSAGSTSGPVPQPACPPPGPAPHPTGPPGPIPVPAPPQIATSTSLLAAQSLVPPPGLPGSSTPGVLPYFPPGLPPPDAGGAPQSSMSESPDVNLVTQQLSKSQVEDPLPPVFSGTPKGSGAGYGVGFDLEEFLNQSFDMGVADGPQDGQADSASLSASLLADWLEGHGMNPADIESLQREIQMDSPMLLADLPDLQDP

Turning to `CCOc1cc(N2CCC(C(=O)N3CCN(Cc4ccc(-n5c(O)nnc5-c5cc(C(C)C)c(O)cc5O)cc4)CC3)CC2)ccc1Nc1ncc2c(n1)N(C)c1ccccc1C(=O)N2C.Cl` [Compound 043, 2-((4-(4-(4-(4-(3-(2,4-dihydroxy-5-isopropylphenyl)-5-hydroxy-4H-1,2,4-triazol-4-yl)benzyl)piperazine-1-carbonyl)piperidin-1-yl)-2-ethoxyphenyl)amino)-5,11-dimethyl-5,11-dihydro-6H-benzo[e]pyrimido[5,4-b][1,4]diazepin-6-one], in assay [1], the “MAPK7 degradation (30 nM)” value is reported as “C (< 33% degradation)”, the “MAPK7 degradation (100 nM)” value was “B (33-66% degradation)”, the “MAPK7 degradation (300 nM)” value is “A (>66% degradation)” and the “MAPK7 degradation (1000 nM)” value is “A (>66% degradation)”. Also, the ERBB2 degradation entry in assay [2] is “B (DC50 = 100-1000 nM)”.
As to `CCOc1cc(N2CCC(C(=O)N3CCC(CN4CCN(Cc5ccc(-n6c(O)nnc6-c6ccc(O)cc6O)cc5)CC4)CC3)CC2)ccc1Nc1ncc2c(n1)N(C)c1ccccc1C(=O)N2C` [Compound 021, 2-((4-(4-(4-((4-(4-(3-(2,4-dihydroxyphenyl)-5-hydroxy-4H-1,2,4-triazol-4-yl)benzyl)piperazin-1-yl)methyl)piperidine-1-carbonyl)piperidin-1-yl)-2-ethoxyphenyl)amino)-5,11-dimethyl-5,11-dihydro-6H-benzo[e]pyrimido[5,4-b][1,4]diazepin-6-one], in assay [1], the “MAPK7 degradation (30 nM)” value is listed as “C (< 33% degradation)”, the “MAPK7 degradation (100 nM)” value was “C (< 33% degradation)”, the “MAPK7 degradation (300 nM)” value is “C (< 33% degradation)” and the “MAPK7 degradation (1000 nM)” value is reported as “C (< 33% degradation)”. In addition, the EC50 in assay [3] was more than 1000 nM. Besides, the EC50 in assay [4] lay within 100 to 1000 nM. The same compound displayed a concentration for half-maximal inhibition (IC50) in assay [5] of 100 to 1000 nM.
Turning to `CCOc1cc(N2CCC(C(=O)N3CCC(CN4CCN(Cc5ccc(-n6c(C(=O)NCC(F)(F)F)nnc6-c6cc(C)c(O)cc6O)cc5)CC4)CC3)CC2)ccc1Nc1ncc2c(n1)N(C)c1ccccc1C(=O)N2C` [Compound 018, 5-(2,4-dihydroxy-5-methylphenyl)-4-(4-((4-((1-(1-(4-((5,11-dimethyl-6-oxo-6,11-dihydro-5H-benzo[e]pyrimido[5,4-b][1,4]diazepin-2-yl)amino)-3-ethoxyphenyl)piperidine-4-carbonyl)piperidin-4-yl)methyl)piperazin-1-yl)methyl)phenyl)-N-(2,2,2-trifluoroethyl)-4H-1,2,4-triazole-3-carboxamide], in assay [1], the “MAPK7 degradation (30 nM)” value is “C (< 33% degradation)”, the “MAPK7 degradation (100 nM)” value was “C (< 33% degradation)” and the “MAPK7 degradation (1000 nM)” value was “A (>66% degradation)”. For the same compound, in assay [2], the ERBB2 degradation result was “B (DC50 = 100-1000 nM)”. Besides, the EC50 in assay [3] was 100 to 1000 nM. The compound also showed an EC50 in assay [4] of less than 100 nM. For the same compound, the IC50 in assay [5] lay in the range of 100 to 1000 nM.
In the case of `CCOc1cc(N2CCC(C(=O)N3CCC(CN4CCN(Cc5ccc(-n6c(C(=O)NCC(F)(F)F)nnc6-c6cc(CC)c(O)cc6O)cc5)CC4)CC3)CC2)ccc1Nc1ncc2c(n1)N(C)c1ccccc1C(=O)N2C` [Compound 022, 4-(4-((4-((1-(1-(4-((5,11-dimethyl-6-oxo-6,11-dihydro-5H-benzo[e]pyrimido[5,4-b][1,4]diazepin-2-yl)amino)-3-ethoxyphenyl)piperidine-4-carbonyl)piperidin-4-yl)methyl)piperazin-1-yl)methyl)phenyl)-5-(5-ethyl-2,4-dihydroxyphenyl)-N-(2,2,2-trifluoroethyl)-4H-1,2,4-triazole-3-carboxamide], in assay [1], the “MAPK7 degradation (30 nM)” value is “C (< 33% degradation)”, the “MAPK7 degradation (100 nM)” value is on record as “C (< 33% degradation)”, the “MAPK7 degradation (300 nM)” value was “B (33-66% degradation)” and the “MAPK7 degradation (1000 nM)” value is reported as “A (>66% degradation)”. The ERBB2 degradation result in assay [2] is “B (DC50 = 100-1000 nM)”. For the same compound, the EC50 in assay [3] lay within 100 to 1000 nM. Besides, in assay [4], the EC50 was less than 100 nM. In assay [5], the IC50 was 100 to 1000 nM.
As for `CCOc1cc(N2CCC(C(=O)N3CCC(N4CCN(Cc5ccc(-n6c(O)nnc6-c6cc(C(C)C)c(O)cc6O)cc5C(F)(F)F)CC4)CC3)CC2)ccc1Nc1ncc2c(n1)N(C)c1ccccc1C(=O)N2C` [Compound 038, 2-((4-(4-(4-(4-(4-(3-(2,4-dihydroxy-5-isopropylphenyl)-5-hydroxy-4H-1,2,4-triazol-4-yl)-2-(trifluoromethyl)benzyl)piperazin-1-yl)piperidine-1-carbonyl)piperidin-1-yl)-2-ethoxyphenyl)amino)-5,11-dimethyl-5,11-dihydro-6H-benzo[e]pyrimido[5,4-b][1,4]diazepin-6-one], the ERBB2 degradation result in assay [2] is “B (DC50 = 100-1000 nM)”. The EC50 in assay [3] was more than 1000 nM; in assay [4], less than 100 nM. This compound also showed an IC50 in assay [5] of 100 to 1000 nM.
The corresponding values for `CCOc1cc(N2CCC(C(=O)N3CCC(CN4CCN(Cc5ccc(-n6c(O)nnc6-c6cc(CC)c(O)cc6O)cc5)CC4)CC3)CC2)ccc1Nc1ncc2c(n1)N(S(C)(=O)=O)c1ccccc1C(=O)N2C` [Compound 070, 2-((2-ethoxy-4-(4-(4-((4-(4-(3-(5-ethyl-2,4-dihydroxyphenyl)-5-hydroxy-4H-1,2,4-triazol-4-yl)benzyl)piperazin-1-yl)methyl)piperidine-1-carbonyl)piperidin-1-yl)phenyl)amino)-5-methyl-11-(methylsulfonyl)-5,11-dihydro-6H-benzo[e]pyrimido[5,4-b][1,4]diazepin-6-one] are “B (DC50 = 100-1000 nM)”, 100 to 1000 nM, less than 100 nM and 100 to 1000 nM.
As to `CCOc1cc(N2CCC(C(=O)NCCOCCOc3ccc(Nc4ccc(-n5nc(C(F)(F)F)c6c5CC(C)(C)CC6=O)cc4C(N)=O)cc3)CC2)ccc1Nc1ncc2c(n1)N(C)c1ccccc1C(=O)N2C` [Compound 065, N-(2-(2-(4-((2-carbamoyl-4-(6,6-dimethyl-4-oxo-3-(trifluoromethyl)-4,5,6,7-tetrahydro-1H-indazol-1-yl)phenyl)amino)phenoxy)ethoxy)ethyl)-1-(4-((5,11-dimethyl-6-oxo-6,11-dihydro-5H-benzo[e]pyrimido[5,4-b][1,4]diazepin-2-yl)amino)-3-ethoxyphenyl)piperidine-4-carboxamide], the ERBB2 degradation entry in assay [2] is “C (DC50 > 1000 nM)”. The EC50 in assay [3] and in assay [4] was more than 1000 nM each time. In assay [5], the IC50 is more than 1000 nM.
Take `CCOc1cc(N2CCC(C(=O)N3CCC(CN4CCN(CCCOc5ccc(Nc6ccc(-n7nc(C(F)(F)F)c8c7CC(C)(C)CC8=O)cc6C(N)=O)cc5)CC4)CC3)CC2)ccc1Nc1ncc2c(n1)N(C)c1ccccc1C(=O)N2C` [Compound 066]: in assay [2], the ERBB2 degradation result is reported as “C (DC50 > 1000 nM)”. Further, the EC50 in assay [3] and in assay [4] was more than 1000 nM in each case. The IC50 in assay [5] is more than 1000 nM.
With `CCOc1cc(N2CCC(C(=O)N3CCC(CN4CCN(Cc5ccc(-n6c(C(=O)N[C@@H](C)C(F)(F)F)nnc6-c6cc(CC)c(O)cc6O)cc5)CC4)CC3)CC2)ccc1Nc1ncc2c(n1)N(S(C)(=O)=O)c1ccccc1C(=O)N2C` [Compound 124, (S)-4-(4-((4-((1-(1-(3-ethoxy-4-((5-methyl-11-(methylsulfonyl)-6-oxo-6,11-dihydro-5H-benzo[e]pyrimido[5,4-b][1,4]diazepin-2-yl)amino)phenyl)piperidine-4-carbonyl)piperidin-4-yl)methyl)piperazin-1-yl)methyl)phenyl)-5-(5-ethyl-2,4-dihydroxyphenyl)-N-(1,1,1-trifluoropropan-2-yl)-4H-1,2,4-triazole-3-carboxamide], the ERBB2 degradation entry in assay [2] is “B (DC50 = 100-1000 nM)”. Further, the values for the EC50 in assay [3] and in assay [4] were 100 to 1000 nM and less than 100 nM, respectively. Also, in assay [5], the IC50 was in the range of 100 to 1000 nM.
